Columns and labels:
Assay type in all cases: in vivo
[1] = test system: green peach aphid (Myzus persicae); experiment: Test C: control of green peach aphid on sprayed radish plants; details: 144 h, read-out: % Mortality of Green Peach Aphid
Protocol: For evaluating control of green peach aphid (Myzus persicae) through contact and/or systemic means, the test unit consisted of a 3-week old radish plant pre-infested with 30-40 aphids 24 h prior to treatment with test solutions. One plant was considered as one replication, four replications were used per treatment.
After spraying of the formulated test solutions, each test unit was allowed to dry, and the test units were held for 6 days in a growth chamber maintained at 19-21° C. and 50-70% relative humidity. Dead and live of aphids were counted in each test unit to determine percent mortality.

[2] = test system: beet armyworm (Spodoptera exigua); experiment: Test D: rainfastness for the control of beet armyworm on sprayed cotton plants; details: Rain: Yes (about 95 mm simulated rain 2 h after spraying), four days after infestation
Excerpt: For evaluating rainfastness (resistance to wash-off) for the control of beet armyworm (Spodoptera exigua), the test unit consisted of a cotton plant grown in a pot containing Redi-earth® medium. Test solutions were formulated as described in TEST A. When the plants were at the 4-6 true leaf growth stage, the plants were sprayed with the formulated test solution using a belt sprayer with nozzle positioned 19 cm above the plants and providing an application volume of 234 liters/ha. After spraying of the formulated test solutions, each test unit was allowed to dry for 2 h and then exposed to about 95 mm of simulated rain in a greenhouse. Plants were then allowed to dry, and leaves were cut and placed on agar in 16-cell plastic trays. One 3-day-old, laboratory reared beet armyworm larva was placed in each cell, and the cells were covered with a plastic lid. Two 16-cell trays were used per treatment. Trays were held in a growth chamber at 75% relative humidity, 16 h with light (as daytime) and 8 h in dark (as nighttime) at 25° C. Four days after infestation, each test unit was evaluated for larvae mortality, and the mean concentrations killing 50% of the population (mean LC50) were calculated and are listed in Table 4D.

[3] = test system: western flower thrips (Frankliniella occidentalis Pergande); experiment: Test A: control of western flower thrips on sprayed bean plants; details: spray 500 L/ha, 7 days, immature thrips count
Protocol: For evaluating control of the western flower thrips (Frankliniella occidentalis Pergande) through contact and/or systemic means, each test unit consisted of a bean plant (var. Soleil) with at least two true leaves, which was planted in Redi-earth® medium (Scotts Co.). One plant was considered as one replication; four replications were used per treatment.
Technical material (unformulated) was dissolved in acetone and mixed with water containing 500 ppm of a blend of non-ionic surfactant with organosilicone (Kinetic®, Helena Chemical Co.). Formulated materials were diluted with water only. Rates of the test solutions were reported by the amount of active ingredient in ppm. Plants were sprayed using a TeeJet flat fan spray nozzle positioned 7.5 inches (19 cm) above the tallest plant. Spray flow rate was adjusted to 5.5 mL/sec for an equivalent of 500 L/ha. After spraying of the test solutions, the test units were placed in ventilated enclosures for at least one hour to dry. Thirty adult thrips were then added to each unit, and then the plants were placed in enclosed cages to prevent insect egress. […] Percent control was calculated by dividing the number of immature thrips in a test unit by the number of immature thrips in the untreated unit, subtracting the quotient from 1, and then multiplying the difference by 100%.

[4] = test system: silverleaf whitefly (Bemisia argentifolii Bellows & Perring); experiment: Test B: control of silverleaf whitefly on sprayed cotton plants; details: 144 h, read-out: % Mortality of Silverleaf Whitefly
Excerpt: For evaluating control of silverleaf whitefly (Bemisia argentifolii Bellows & Perring), the test unit consisted of a 14-21-day-old cotton plant with at least two true leaves, which was planted in Redi-earth® medium (Scotts Co.). The plants were placed in screened cages, where whitefly adults were introduced and allowed to lay eggs for approximately twenty-four hours. Only plants showing egg lay were used for testing. Before spraying the test solutions, the plants were checked again for egg hatch and crawler settlement. One leaf per plant was considered as one replication; four replications were used per treatment.
Test solutions were formulated as described in TEST A. A control solution consisting of 25% acetone in water was also prepared. After spraying, plants were allowed to dry in a ventilated enclosure and held for six days in a growth chamber at 50% relative humidity, 16 h with light (as daytime) at 28° C. and 8 h in dark (as nighttime) at 24° C. After removing all leaves from each test plant, evaluation was made by counting dead and live nymphs present on the underside of the leaves.

SMILES	mortality at 50 ppm [1]	mortality at 100 ppm [1]	mortality at 200 ppm [1]	mortality at 400 ppm [1]	Mean LC50 of Beet Armyworm [2]	Mean LC50 of Beet Armyworm ([2]; listed as Compound 1)	% Control of Western Flower Thrips ([3]; 100 ppm a.i.)	% Control of Western Flower Thrips ([3]; 200 ppm a.i.)	mortality at 22 ppm [4]	mortality at 66 ppm [4]	mortality at 200 ppm [4]	mortality at 600 ppm [4]	Mean LC50 of Beet Armyworm ([2]; listed as Compound 2)
CNC(=O)c1cc(C#N)cc(C)c1NC(=O)c1cc(Br)nn1-c1ncccc1Cl [Technical Compound 1, 3-bromo-1-(3-chloro-2-pyridinyl)-N-[4-cyano-2-methyl-6-[(methylamino)carbonyl]phenyl]-1H-pyrazole-5-carboxamide]	8%	9%	19%	35%	Very little activity	very little activity	74%	72%	90%	91%	100%	100%	
CNC(=O)c1cc(Cl)cc(C)c1NC(=O)c1cc(Br)nn1-c1ncccc1Cl [Technical Compound 2, 3-bromo-N-[4-chloro-2-methyl-6-[(methylamino)carbonyl]phenyl]-1-(3-chloro-2-pyridinyl)-1H-pyrazole-5-carboxamide]					Inactive								no detectable activity

— patent publication US9332756B2, “Liquid formulations of carboxamide arthropodicides” (E I DU PONT DE NEMOURS AND COMPANY, priority 2006, dated 2016)
